We go through six molecules from US20240158446A1, “CYCLIC COMPOUND HAVING SELECTIVE INHIBITORY ACTION ON KRAS OVER HRAS AND NRAS” (CHUGAI SEIYAKU KABUSHIKI KAISHA, priority 2021, published 2024).

Like-named read-outs stand apart in the source and are kept apart here.

Assay [1] deals with GDP-bound KRAS wild-type protein (Homo sapiens, UniProt P01116). The assay is described as follows: Binding to KRAS by surface plasmon resonance (SPR), Single Cycle Kinetics. Conditions: GDP-bound KRAS wild-type protein, read-out: KRAS KD.
Chain of GDP-bound KRAS wild-type protein (P01116 whole entry): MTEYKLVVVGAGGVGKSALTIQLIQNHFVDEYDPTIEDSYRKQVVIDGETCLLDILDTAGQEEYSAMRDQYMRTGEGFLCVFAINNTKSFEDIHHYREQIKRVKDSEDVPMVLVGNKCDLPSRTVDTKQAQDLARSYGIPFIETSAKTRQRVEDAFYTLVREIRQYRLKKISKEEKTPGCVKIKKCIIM
Assay [2] concerns the target GDP-bound HRAS wild-type protein (Homo sapiens, UniProt P01112). The assay is described as follows: Binding to HRAS by surface plasmon resonance (SPR), Single Cycle Kinetics. (In general: Surface plasmon resonance follows binding to a sensor surface in real time, without labels.)
Assay [3] concerns the target GDP-bound NRAS wild-type protein (Homo sapiens, UniProt P01111). The assay is described as follows: Binding to NRAS by surface plasmon resonance (SPR), Single Cycle Kinetics.
The mark [4] stands for this setting: SPR, Single Cycle Kinetics, 1:1 binding model.
The mark [5] stands for this setting: SPR, GDP-bound HRAS wild-type protein vs GDP-bound KRAS wild-type protein, KD ratio class.
Setting [6] is: SPR, GDP-bound NRAS wild-type protein vs GDP-bound KRAS wild-type protein, KD ratio class.
[7] abbreviates: SPR Single Cycle Kinetics, 1:1 binding model.
The mark [8] stands for this setting: SPR, GDP-bound HRAS wild-type protein vs GDP-bound KRAS wild-type protein.
Where [9] appears, read: SPR, GDP-bound NRAS wild-type protein vs GDP-bound KRAS wild-type protein.

Chain of GDP-bound NRAS wild-type protein (P01111 whole entry): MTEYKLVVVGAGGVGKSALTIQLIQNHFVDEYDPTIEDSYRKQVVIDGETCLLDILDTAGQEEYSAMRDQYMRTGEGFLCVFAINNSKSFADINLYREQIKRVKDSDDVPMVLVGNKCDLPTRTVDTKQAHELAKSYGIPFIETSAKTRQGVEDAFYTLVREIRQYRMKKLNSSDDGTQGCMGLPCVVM
Chain of GDP-bound HRAS wild-type protein (P01112 whole entry): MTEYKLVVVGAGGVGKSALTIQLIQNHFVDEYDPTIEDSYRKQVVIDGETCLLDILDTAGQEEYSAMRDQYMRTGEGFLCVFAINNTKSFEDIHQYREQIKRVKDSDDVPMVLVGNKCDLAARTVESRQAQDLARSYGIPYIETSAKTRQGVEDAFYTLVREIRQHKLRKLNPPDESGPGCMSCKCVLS

Usually Kd stands for the constant that tells how readily two partners part at equilibrium. Take `CCO[C@@H]1C[C@H]2C(=O)NC3(CCC3)C(=O)N(C)[C@@H](C3CCCC3)C(=O)N(C)[C@H](C(=O)N(C)CC)CC(=O)N(C)[C@@H](CC(F)F)C(=O)N[C@@H]([C@@H](C)CC)C(=O)N(C)CC(=O)N(C)[C@H]3C/C=C\CCN(C3=O)[C@@H](Cc3ccc(C(F)(F)F)cc3)C(=O)N(C)CC(=O)N[C@@H](CCc3cc(F)c(C(F)(F)F)c(F)c3)C(=O)N2C1` [PP1303]: the Kd in assay [1] (setting [4]) amounted to 0.068 nM. For the same molecule, in assay [2] (setting [5]), the “HRAS/KRAS (ratio of KD value for HRAS to KD value for KRAS)” value is “A (a compound having 10 or more and less than 20 is denoted as A)”. Moreover, the “NRAS/KRAS (ratio of KD value for NRAS to KD value for KRAS)” value in assay [3] (setting [6]) is “AA (a compound having 20 or more is denoted as AA)”.
As to `CCC[C@H]1C(=O)N[C@@H]([C@@H](C)CC)C(=O)N(C)CC(=O)N(C)[C@H]2C/C=C\CCN(C2=O)[C@@H](Cc2ccc(C(F)(F)F)cc2)C(=O)N(C)CC(=O)N[C@@H](CCc2ccc(C(F)(F)F)c(OC)c2)C(=O)N2CCCC[C@H]2C(=O)NC2(CC(C)(C)C2)C(=O)N(C)[C@@H](C(CC)CC)C(=O)N(C)[C@H](C(=O)N(C)C)CC(=O)N1C` [PP2934], the Kd in assay [1] (setting [7]) was 2 nM. For the same molecule, in assay [2] (SPR KD ratio HRAS/KRAS, class symbols), the “HRAS/KRAS (ratio of KD value with respect to GDP-bound HRAS wild-type protein to KD value with respect to KRAS)” value is “A (a compound having 10 or more and less than 20 is denoted as A)”. Further, the “NRAS/KRAS (ratio of KD value with respect to GDP-bound NRAS wild-type protein to KD value with respect to KRAS)” value in assay [3] (SPR KD ratio NRAS/KRAS, class symbols) was “AA (a compound having 20 or more is denoted as AA)”.
Take `CCO[C@@H]1C[C@H]2C(=O)NC3(CCC3)C(=O)N(C)[C@@H](C3CCCC3)C(=O)N(C)[C@H](C(C)C)CC(=O)N(C)[C@@H](CC)C(=O)N[C@@H]([C@@H](C)CC)C(=O)N(C)CC(=O)N(C)[C@H]3C/C=C\CCN(C3=O)[C@@H](CC3CCCCC3)C(=O)N(C)CC(=O)N[C@@H](CCc3cc(F)c(C(F)(F)F)c(F)c3)C(=O)N2C1` [PP1601]: the Kd in assay [1] (setting [4]) is 2.1 nM. Further, the “HRAS/KRAS (ratio of KD value for HRAS to KD value for KRAS)” value in assay [2] (setting [5]) is “A (a compound having 10 or more and less than 20 is denoted as A)”. The “NRAS/KRAS (ratio of KD value for NRAS to KD value for KRAS)” value in assay [3] (setting [6]) was “B (a compound having 3 or more and less than 10 is denoted as B)”.
Turning to `CCO[C@@H]1C[C@H]2C(=O)NC3(CCC3)C(=O)N(C)[C@@H](C3CCCC3)C(=O)N(C)[C@H](C(=O)N(C)C)CC(=O)N(C)[C@@H](CC)C(=O)N[C@@H]([C@@H](C)CC)C(=O)N(C)CC(=O)N(C)[C@H]3CCCCCN(C3=O)[C@@H](Cc3ccc(F)cc3C)C(=O)N(C)CC(=O)N[C@@H](CCc3cc(F)c(C(F)(F)F)c(F)c3)C(=O)N2C1` [PP0911], the dissociation constant (Kd) in assay [1] (SPR, Single Cycle Kinetics) came out at 0.06 nM. Moreover, in assay [2] (setting [8]), the “HRAS/KRAS (ratio of KD value for HRAS to KD value for KRAS)” value is “B (a compound having 3 or more and less than 10 is denoted as B)”. Further, in assay [3] (setting [9]), the “NRAS/KRAS (ratio of KD value for NRAS to KD value for KRAS)” value is “B (a compound having 3 or more and less than 10 is denoted as B)”.
In the case of `CCO[C@@H]1C[C@H]2C(=O)NC3(CCC3)C(=O)N(C)[C@@H](C3CCCC3)C(=O)N(C)[C@H](C(=O)N3CCOCC3)CC(=O)N(C)C[C@@H](C)C(=O)N[C@@H]([C@@H](C)CC)C(=O)N(C)CC(=O)N(C)[C@H]3CCCCN(C3=O)[C@@H](Cc3ccc(C(F)(F)F)cc3)C(=O)N(C)CC(=O)N[C@@H](CCc3cc(F)c(C(F)(F)F)c(F)c3)C(=O)N2C1` [PP0721], the Kd in assay [1] (setting [7]) is 11 nM. Further, the “HRAS/KRAS (ratio of KD value with respect to HRAS to KD value with respect to KRAS)” value in assay [2] (setting [8]) was “B (a compound having 3 or more and less than 10 is denoted as B)”. In assay [3] (setting [9]), the “NRAS/KRAS (ratio of KD value with respect to NRAS to KD value with respect to KRAS)” value was “B (a compound having 3 or more and less than 10 is denoted as B)”.
Regarding `CCO[C@@H]1C[C@H]2C(=O)NC3(CCC3)C(=O)N(C)[C@@H](C3CCCC3)C(=O)N(C)[C@H](C(=O)N(C)C)CC(=O)N(C)[C@@H](Cc3ccc(F)cc3)C(=O)N[C@@H]([C@@H](C)CC)C(=O)N(C)CC(=O)N(C)[C@H]3CCCCCN(C3=O)[C@@H](Cc3ccc(C(F)(F)F)cc3)C(=O)N(C)CC(=O)N[C@@H](CCc3cc(F)c(C(F)(F)F)c(F)c3)C(=O)N2C1` [PP0936], the Kd in assay [1] (SPR, Single Cycle Kinetics) was found to be 0.42 nM. In assay [2] (setting [8]), the “HRAS/KRAS (ratio of KD value for HRAS to KD value for KRAS)” value is “B (a compound having 3 or more and less than 10 is denoted as B)”. In assay [3] (setting [9]), the “NRAS/KRAS (ratio of KD value for NRAS to KD value for KRAS)” value was “B (a compound having 3 or more and less than 10 is denoted as B)”.
